Calls of active or inactive are those of the source. No rule for the calls is given here.
Test system: rodent lifetime carcinogenesis bioassay, tumor incidence TD50
Assay: chronic cancer bioassays in animals – CPDB, compiled studies (AID 1745844)

Molecule `O=C1C2(Cl)C3(Cl)C4(Cl)C(Cl)(Cl)C5(Cl)C3(Cl)C1(Cl)C5(Cl)C24Cl` (stereo unspecified) has a TD50 (mouse, strain B6C3F1, females, in feed, site: any site (literature study), lesion: several types, types named in the paper, dosed 80 weeks, study length 90 weeks) of 1.57 mg/kg/day, a TD50 (mouse, strain B6C3F1, females, in feed, site: liver, lesion: hepatocellular adenoma + hepatocellular carcinoma + neoplastic nodule, dosed 80 weeks, study length 90 weeks) of 1.62 mg/kg/day and a TD50 (mouse, strain B6C3F1, females, in feed, site: liver, lesion: hepatocellular carcinoma, dosed 80 weeks, study length 90 weeks) of 1.62 mg/kg/day. For the same molecule, the TD50 (mouse, strain B6C3F1, males, in feed, site: any site (literature study), lesion: several types, types named in the paper, dosed 80 weeks, study length 89 weeks) was 0.705 mg/kg/day, the TD50 (mouse, strain B6C3F1, males, in feed, site: liver, lesion: hepatocellular adenoma + hepatocellular carcinoma + neoplastic nodule, dosed 80 weeks, study length 89 weeks) was 0.705 mg/kg/day and the TD50 (mouse, strain B6C3F1, males, in feed, site: liver, lesion: hepatocellular carcinoma, dosed 80 weeks, study length 89 weeks) was 0.705 mg/kg/day. It also gave a TD50 (mouse, strain B6C3F1, males, in feed, site: lung, lesion: alveolar/bronchiolar adenoma + alveolar/bronchiolar carcinoma, dosed 80 weeks, study length 89 weeks) of 29.3 mg/kg/day, a TD50 (rat, strain Osborne-Mendel, females, in feed, site: any site (literature study), lesion: several types, types named in the paper, dosed 80 weeks, study length 109 weeks) of 1.83 mg/kg/day and a TD50 (rat, strain Osborne-Mendel, females, in feed, site: liver, lesion: hepatocellular adenoma + hepatocellular carcinoma + neoplastic nodule, dosed 80 weeks, study length 109 weeks) of 2.96 mg/kg/day. For the same molecule, the TD50 (rat, strain Osborne-Mendel, males, in feed, site: any site (literature study), lesion: several types, types named in the paper, dosed 80 weeks, study length 109 weeks) was 1.42 mg/kg/day (inactive), the TD50 (rat, strain Osborne-Mendel, males, in feed, site: liver, lesion: hepatocellular adenoma + hepatocellular carcinoma + neoplastic nodule, dosed 80 weeks, study length 109 weeks) was 2.49 mg/kg/day and the TD50 (rat, strain Sprague-Dawley, males, in feed, site: liver, lesion: neoplastic nodule, dosed 91 weeks, study length 91 weeks) was 0.199 mg/kg/day.
For `CC(=O)N[C@@H](CC(C)C)C(=O)N[C@@H](CC(C)C)C(=O)NC(C=O)CCCN=C(N)N` (stereo partly specified), the TD50 (mouse, strain A/JJms, females, in feed, site: liver, lesion: liver-cell tumor, type B, dosed 68 weeks, study length 68 weeks) was 933 mg/kg/day (inactive), the TD50 (mouse, strain A/JJms, females, in feed, site: lung, lesion: several types, types named in the paper, dosed 68 weeks, study length 68 weeks) was 229 mg/kg/day (inactive) and the TD50 (mouse, strain A/JJms, males, in feed, site: liver, lesion: several types, types named in the paper, dosed 68 weeks, study length 68 weeks) was 55.8 mg/kg/day. The TD50 (mouse, strain A/JJms, males, in feed, site: lung, lesion: several types, types named in the paper, dosed 68 weeks, study length 68 weeks) was 422 mg/kg/day (inactive).
`Nc1ccc2c(n1)[nH]c1ccccc12` showed a TD50 (mouse, strain CDF1, females, in feed, site: blood vessels, lesion: hemangioendothelial sarcoma, dosed 97 weeks, study length 97 weeks) of 381 mg/kg/day, a TD50 (mouse, strain CDF1, females, in feed, site: liver, lesion: hepatocellular carcinoma, dosed 97 weeks, study length 97 weeks) of 44.7 mg/kg/day and a TD50 (mouse, strain CDF1, females, in feed, site: liver, lesion: several types, types named in the paper, dosed 97 weeks, study length 97 weeks) of 35.6 mg/kg/day. It also gave a TD50 (mouse, strain CDF1, females, in feed, site: lung, lesion: adenoma, dosed 97 weeks, study length 97 weeks) of 795 mg/kg/day, a TD50 (mouse, strain CDF1, females, in feed, site: lung, lesion: several types, types named in the paper, dosed 97 weeks, study length 97 weeks) of 1150 mg/kg/day and a TD50 (mouse, strain CDF1, males, in feed, site: blood vessels, lesion: hemangioendothelial sarcoma, dosed 97 weeks, study length 97 weeks) of 103 mg/kg/day. For the same molecule, the TD50 (mouse, strain CDF1, males, in feed, site: blood vessels, lesion: several types, types named in the paper, dosed 97 weeks, study length 97 weeks) was 82.6 mg/kg/day, the TD50 (mouse, strain CDF1, males, in feed, site: liver, lesion: hepatocellular adenoma, dosed 97 weeks, study length 97 weeks) was 352 mg/kg/day and the TD50 (mouse, strain CDF1, males, in feed, site: liver, lesion: hepatocellular carcinoma, dosed 97 weeks, study length 97 weeks) was 225 mg/kg/day. It also gave a TD50 (mouse, strain CDF1, males, in feed, site: liver, lesion: several types, types named in the paper, dosed 97 weeks, study length 97 weeks) of 122 mg/kg/day.
With `NC(Cc1c[nH]c2ccccc12)C(=O)O` (stereo unspecified) the carcinogen call (rat, strain Fischer, males, in feed, site: liver, lesion: one or several types, types not named, dosed 98 weeks, study length 98 weeks) was “negative (inactive)” and the carcinogen call (rat, strain Fischer, males, in feed, site: urinary bladder, lesion: one or several types, types not named, dosed 98 weeks, study length 98 weeks) was “negative (inactive)”.
`O=S1(=O)CC=CC1` was tested, and the carcinogen call (mouse, strain B6C3F1, females, by gavage, site: any site (literature study), lesion: several types, types named in the paper, dosed 78 weeks, study length 90 weeks) was “negative (inactive)”, the TD50 (mouse, strain B6C3F1, females, by gavage, site: lung, lesion: alveolar/bronchiolar adenoma + alveolar/bronchiolar carcinoma, dosed 78 weeks, study length 90 weeks) was 1940 mg/kg/day and the TD50 (mouse, strain B6C3F1, males, by gavage, site: any site (literature study), lesion: several types, types named in the paper, dosed 78 weeks, study length 90 weeks) was 631 mg/kg/day (inactive). For the same molecule, the TD50 (mouse, strain B6C3F1, males, by gavage, site: liver, lesion: hepatocellular adenoma + hepatocellular carcinoma + neoplastic nodule, dosed 78 weeks, study length 90 weeks) was 415 mg/kg/day, the TD50 (mouse, strain B6C3F1, males, by gavage, site: lung, lesion: alveolar/bronchiolar adenoma + alveolar/bronchiolar carcinoma, dosed 78 weeks, study length 90 weeks) was 882 mg/kg/day and the TD50 (rat, strain Osborne-Mendel, females, by gavage, site: any site (literature study), lesion: several types, types named in the paper, dosed 78 weeks, study length 111 weeks) was 5370 mg/kg/day (inactive). For the same molecule, the TD50 (rat, strain Osborne-Mendel, males, by gavage, site: any site (literature study), lesion: several types, types named in the paper, dosed 69 weeks, study length 111 weeks) was 30.8 mg/kg/day (inactive).
Work on `O=S(=O)(O)c1ccc2c(N=Nc3ccc(S(=O)(=O)O)c4ccccc34)c(O)c(S(=O)(=O)O)cc2c1` yielded a TD50 (rat, strain Mongrel, both sexes, in feed, site: any site (literature study), lesion: several types, types named in the paper, dosed 108 weeks, study length 108 weeks) of 632 mg/kg/day, a TD50 (rat, strain Non-inbred, both sexes, in feed, site: any site (literature study), lesion: several types, types named in the paper, dosed 143 weeks, study length 143 weeks) of 3320 mg/kg/day and a TD50 (rat, strain Non-inbred, both sexes, in feed, site: liver, lesion: hepatoma, dosed 143 weeks, study length 143 weeks) of 49500 mg/kg/day. The TD50 (rat, strain Not specified, females, in feed, site: any site (literature study), lesion: several types, types named in the paper, dosed 64 weeks, study length 64 weeks) was 1640 mg/kg/day (inactive), the carcinogen call (rat, strain Not specified, females, in feed, site: liver, lesion: one or several types, types not named, dosed 64 weeks, study length 64 weeks) was “negative (inactive)” and the carcinogen call (rat, strain Not specified, males, in feed, site: any site (literature study), lesion: several types, types named in the paper, dosed 64 weeks, study length 64 weeks) was “negative (inactive)”. The carcinogen call (rat, strain Not specified, males, in feed, site: liver, lesion: one or several types, types not named, dosed 64 weeks, study length 64 weeks) was “negative (inactive)”, the carcinogen call (rat, strain Sprague-Dawley, females, in feed, site: any site (literature study), lesion: one or several types, types not named, dosed 52 weeks, study length 52 weeks) was “negative (inactive)” and the carcinogen call (rat, strain Sprague-Dawley, females, in feed, site: liver, lesion: one or several types, types not named, dosed 52 weeks, study length 52 weeks) was “negative (inactive)”. The TD50 (rat, strain Wistar, both sexes, in feed, site: abdomen, lesion: malignant lymphoma, dosed 91 weeks, study length 91 weeks) was 6130 mg/kg/day.
For `O=S(=O)(O)c1ccc(N=Nc2cc(S(=O)(=O)O)c3ccccc3c2O)c2ccccc12`, the carcinogen call (mouse, strain ASH-CS1, females, in feed, site: liver, lesion: one or several types, types not named, dosed 80 weeks, study length 80 weeks) was “negative (inactive)”, the TD50 (mouse, strain ASH-CS1, females, in feed, site: lung, lesion: papillary adenoma, dosed 80 weeks, study length 80 weeks) was 32900 mg/kg/day (inactive) and the carcinogen call (mouse, strain ASH-CS1, males, in feed, site: liver, lesion: adenoma, dosed 80 weeks, study length 80 weeks) was “negative (inactive)”. For the same molecule, the carcinogen call (mouse, strain ASH-CS1, males, in feed, site: liver, lesion: nodular hyperplasia, dosed 80 weeks, study length 80 weeks) was “negative (inactive)”, the TD50 (mouse, strain ASH-CS1, males, in feed, site: lung, lesion: papillary adenoma, dosed 80 weeks, study length 80 weeks) was 12300 mg/kg/day (inactive) and the carcinogen call (mouse, strain B6C3F1, females, in feed, site: any site (literature study), lesion: several types, types named in the paper, dosed 103 weeks, study length 104 weeks) was “negative (inactive)”. For the same molecule, the carcinogen call (mouse, strain B6C3F1, males, in feed, site: any site (literature study), lesion: several types, types named in the paper, dosed 103 weeks, study length 103 weeks) was “negative (inactive)”, the TD50 (rat, strain Fischer 344, females, in feed, site: any site (literature study), lesion: several types, types named in the paper, dosed 103 weeks, study length 104 weeks) was 7180 mg/kg/day and the TD50 (rat, strain Fischer 344, females, in feed, site: clitoral gland, lesion: sebaceous adenoma, dosed 103 weeks, study length 104 weeks) was 16400 mg/kg/day. For the same molecule, the TD50 (rat, strain Fischer 344, females, in feed, site: uterus, lesion: endometrial stromal polyp, dosed 103 weeks, study length 104 weeks) was 3270 mg/kg/day (inactive), the TD50 (rat, strain Fischer 344, males, in feed, site: any site (literature study), lesion: several types, types named in the paper, dosed 103 weeks, study length 104 weeks) was 1860 mg/kg/day (inactive) and the TD50 (rat, strain Fischer 344, males, in feed, site: liver, lesion: hepatocellular adenoma + hepatocellular carcinoma + neoplastic nodule, dosed 103 weeks, study length 104 weeks) was 9850 mg/kg/day.
For `CCOCCc1c(-c2ccccc2)nc(N)n2ncnc12`, the TD50 (rat, strain Charles River CD (Sprague-Dawley), females, in feed, site: liver, lesion: hepatocellular adenoma, dosed 97 weeks, study length 105 weeks) was 307 mg/kg/day, the TD50 (rat, strain Charles River CD (Sprague-Dawley), females, in feed, site: liver, lesion: hepatocellular carcinoma, dosed 97 weeks, study length 105 weeks) was 646 mg/kg/day and the TD50 (rat, strain Charles River CD (Sprague-Dawley), females, in feed, site: mammary gland, lesion: adenoma, dosed 97 weeks, study length 105 weeks) was 3010 mg/kg/day. For the same molecule, the TD50 (rat, strain Charles River CD (Sprague-Dawley), females, in feed, site: mammary gland, lesion: carcinoma, dosed 97 weeks, study length 105 weeks) was 669 mg/kg/day, the TD50 (rat, strain Charles River CD (Sprague-Dawley), females, in feed, site: thyroid gland, lesion: adenoma, dosed 97 weeks, study length 105 weeks) was 9710 mg/kg/day and the TD50 (rat, strain Charles River CD (Sprague-Dawley), males, in feed, site: liver, lesion: hepatocellular adenoma, dosed 97 weeks, study length 105 weeks) was 2530 mg/kg/day. It also gave a TD50 (rat, strain Charles River CD (Sprague-Dawley), males, in feed, site: liver, lesion: hepatocellular carcinoma, dosed 97 weeks, study length 105 weeks) of 4160 mg/kg/day, a TD50 (rat, strain Charles River CD (Sprague-Dawley), males, in feed, site: thyroid gland, lesion: adenoma, dosed 97 weeks, study length 105 weeks) of 11000 mg/kg/day and a TD50 (rat, strain Charles River CD (Sprague-Dawley), males, in feed, site: thyroid gland, lesion: carcinoma, dosed 97 weeks, study length 105 weeks) of 12400 mg/kg/day.
For `CCOc1ccc(NC(C)=O)cc1N`, the TD50 (mouse, strain B6C3F1, females, in feed, site: any site (literature study), lesion: several types, types named in the paper, dosed 78 weeks, study length 93 weeks) was 569 mg/kg/day, the TD50 (mouse, strain B6C3F1, females, in feed, site: lung, lesion: alveolar/bronchiolar adenoma + alveolar/bronchiolar carcinoma, dosed 78 weeks, study length 93 weeks) was 8630 mg/kg/day and the TD50 (mouse, strain B6C3F1, females, in feed, site: pituitary gland, lesion: adenoma, NOS + carcinoma, NOS + chromophobe adenoma, dosed 78 weeks, study length 93 weeks) was 1050 mg/kg/day (inactive). For the same molecule, the TD50 (mouse, strain B6C3F1, males, in feed, site: liver, lesion: hepatocellular adenoma + hepatocellular carcinoma + neoplastic nodule, dosed 78 weeks, study length 93 weeks) was 8990 mg/kg/day, the TD50 (mouse, strain B6C3F1, males, in feed, site: thyroid gland, lesion: adenocarcinoma, NOS + adenoma, NOS + follicular-cell adenoma + follicular-cell carcinoma, dosed 78 weeks, study length 93 weeks) was 2070 mg/kg/day and the TD50 (mouse, strain B6C3F1, males, in feed, site: thyroid gland, lesion: adenocarcinoma, NOS + follicular-cell carcinoma, dosed 78 weeks, study length 93 weeks) was 4020 mg/kg/day. The TD50 (mouse, strain B6C3F1, males, in feed, site: thyroid gland, lesion: follicular-cell carcinoma, dosed 78 weeks, study length 93 weeks) was 3770 mg/kg/day, the TD50 (rat, strain Fischer 344, females, in feed, site: adrenal gland, lesion: cortical adenoma + cortical carcinoma, dosed 78 weeks, study length 106 weeks) was 415 mg/kg/day (inactive) and the TD50 (rat, strain Fischer 344, females, in feed, site: liver, lesion: hepatocellular adenoma + hepatocellular carcinoma + neoplastic nodule, dosed 78 weeks, study length 106 weeks) was 717 mg/kg/day. The TD50 (rat, strain Fischer 344, males, in feed, site: thyroid gland, lesion: c-cell carcinoma, dosed 78 weeks, study length 106 weeks) was 610 mg/kg/day (inactive).

From PubChem BioAssay AID1745844 (Carcinogenic Potency Database (CPDB), 2022)
